Test results taken from patent US11969428B2, “Methods and pharmaceutical compositions for treating lymphoid malignancy” (priority 2011, dated 2024).

Legend:
AKT1 = target: T1, AKT1 (Homo sapiens, UniProt P31749); test: Ambit KinomeScan screening; format: binding; settings: CAL-130 10 μM
T1 construct: purchased Ambit (KinomeScan screening)
Method: (§1) CAL-130 (10 μM) was evaluated for its ability to prevent tagged kinases from interacting with immobilized “bait” ligand (Karaman et al., 2008). Results are reported as “% of control binding”, where lower numbers indicate stronger interactions with the tagged kinase. Values of >35% are considered “no hits”. PI3Kδ had the lowest percentage of control binding at 0.2% followed by PI3Kγ at 3.2% (See Table 1 below). These values indicate a high probability of a potent interaction. 353 kinases were assessed in the screen (Table 2).

AMPK-α2 = target: T2, AMPK-α2 (Homo sapiens, UniProt P54646); test: Ambit KinomeScan screening; format: binding; settings: CAL-130 10 μM
T2 construct: purchased Ambit (KinomeScan screening)
Method: as §1

ASK2 = target: T3, ASK2 (Homo sapiens, UniProt O95382); test: Ambit KinomeScan screening; format: binding; settings: CAL-130 10 μM
T3 construct: purchased Ambit (KinomeScan screening service)
Method: as §1

CAMK4 = target: T4, CAMK4 (Homo sapiens, UniProt Q16566); test: Ambit KinomeScan screening; format: binding; settings: CAL-130 10 μM
T4 construct: purchased Ambit (KinomeScan screening)
Method: as §1

CDKL3 = target: T5, CDKL3 (Homo sapiens, UniProt Q8IVW4); test: Ambit KinomeScan screening; format: binding; settings: CAL-130 10 μM
T5 construct: purchased Ambit (KinomeScan screening service)
Method: as §1

CSNK1G3 = target: T6, CSNK1G3 (Homo sapiens, UniProt Q9Y6M4); test: Ambit KinomeScan screening; format: binding; settings: CAL-130 10 μM
T6 construct: purchased Ambit (KinomeScan screening service)
Method: as §1

CSNK2A2 = target: T7, CSNK2A2 (Homo sapiens, UniProt P19784); test: Ambit KinomeScan screening; format: binding; settings: CAL-130 10 μM
T7 construct: purchased Ambit (KinomeScan screening service)
Method: as §1

DAPK3 = target: T8, DAPK3 (Homo sapiens, UniProt O43293); test: Ambit KinomeScan screening; format: binding; settings: CAL-130 10 μM
T8 construct: unspecified tag ("tagged kinases"); purchased Ambit (KinomeScan screening service)
Method: as §1

DDR1 = target: T9, DDR1 (Homo sapiens, UniProt Q08345); test: Ambit KinomeScan screening; format: binding; settings: CAL-130 10 μM
T9 construct: unspecified tag ("tagged kinases"); purchased Ambit (KinomeScan screening service)
Method: as §1

ERK1 = target: T10, ERK1 (Homo sapiens, UniProt P27361); test: Ambit KinomeScan screening; format: binding; settings: CAL-130 10 μM
T10 construct: unspecified tag ("tagged kinases"); purchased Ambit (KinomeScan screening service)
Method: as §1

ERK8 = target: T11, ERK8 (Homo sapiens, UniProt Q8TD08); test: Ambit KinomeScan screening; format: binding; settings: CAL-130 10 μM
T11 construct: unspecified tag ("tagged kinases"); purchased Ambit (KinomeScan screening service)
Method: as §1

FLT3(D835H) = target: T12, FLT3(D835H) (Homo sapiens, UniProt P36888, D835H); test: Ambit KinomeScan screening; format: binding; settings: CAL-130 10 μM
T12 construct: unspecified tag; purchased Ambit (KinomeScan screening service)
Method: as §1

FLT3(D835Y) = target: T13, FLT3(D835Y) (Homo sapiens, UniProt P36888, D835Y); test: Ambit KinomeScan screening; format: binding; settings: CAL-130 10 μM
T13 construct: unspecified tag; purchased Ambit (KinomeScan screening service)
Method: as §1

IRAK1 = target: T14, IRAK1 (Homo sapiens, UniProt P51617); test: Ambit KinomeScan screening; format: binding; settings: CAL-130 10 μM
T14 construct: Ambit (KinomeScan screening)
T14 sequence (P51617 whole entry): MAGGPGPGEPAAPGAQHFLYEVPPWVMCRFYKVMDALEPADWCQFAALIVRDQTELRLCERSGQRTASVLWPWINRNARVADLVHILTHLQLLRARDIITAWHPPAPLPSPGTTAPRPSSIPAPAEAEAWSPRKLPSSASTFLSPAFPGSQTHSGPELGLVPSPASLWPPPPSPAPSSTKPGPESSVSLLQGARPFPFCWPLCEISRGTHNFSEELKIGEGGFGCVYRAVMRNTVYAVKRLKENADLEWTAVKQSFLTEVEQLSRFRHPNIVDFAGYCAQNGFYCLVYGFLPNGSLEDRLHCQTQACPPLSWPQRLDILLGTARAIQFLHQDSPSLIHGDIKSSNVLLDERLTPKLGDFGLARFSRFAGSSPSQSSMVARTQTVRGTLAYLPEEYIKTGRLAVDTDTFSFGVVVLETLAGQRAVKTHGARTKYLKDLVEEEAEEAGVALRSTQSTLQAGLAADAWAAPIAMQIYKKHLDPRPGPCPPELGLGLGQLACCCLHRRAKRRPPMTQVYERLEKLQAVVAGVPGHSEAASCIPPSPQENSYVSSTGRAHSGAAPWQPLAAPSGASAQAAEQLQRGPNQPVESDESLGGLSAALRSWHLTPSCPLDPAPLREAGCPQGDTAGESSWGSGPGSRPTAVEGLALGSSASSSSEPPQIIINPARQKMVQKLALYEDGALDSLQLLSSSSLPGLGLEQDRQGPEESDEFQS
Method: as §1

LKB1 = target: T15, LKB1 (Homo sapiens, UniProt Q15831); test: Ambit KinomeScan screening; format: binding; settings: CAL-130 10 μM
T15 construct: unspecified tag ('tagged kinases'); purchased Ambit (KinomeScan screening service)
Method: as §1

MAP4K3 = target: T16, MAP4K3 (Homo sapiens, UniProt Q8IVH8); test: Ambit KinomeScan screening; format: binding; settings: CAL-130 10 μM
T16 construct: Ambit (KinomeScan screening)
Method: as §1

MELK = target: T17, MELK (Homo sapiens, UniProt Q14680); test: Ambit KinomeScan screening; format: binding; settings: CAL-130 10 μM
T17 construct: purchased Ambit (KinomeScan screening)
Method: as §1

MKNK1 = target: T18, MKNK1 (Homo sapiens, UniProt Q9BUB5); test: Ambit KinomeScan screening; format: binding; settings: CAL-130 10 μM
T18 construct: unspecified tag ('tagged kinases'); purchased Ambit (KinomeScan screening)
Method: as §1

MRCKA = target: T19, MRCKA (Homo sapiens, UniProt Q5VT25); test: Ambit KinomeScan screening; format: binding; settings: CAL-130 10 μM
T19 construct: unspecified tag ('tagged kinases'); purchased Ambit (KinomeScan screening)
Method: as §1

PAK3 = target: T20, PAK3 (Homo sapiens, UniProt O75914); test: Ambit KinomeScan screening; format: binding; settings: CAL-130 10 μM
T20 construct: purchased Ambit (KinomeScan screening service)
T20 sequence (O75914 whole entry): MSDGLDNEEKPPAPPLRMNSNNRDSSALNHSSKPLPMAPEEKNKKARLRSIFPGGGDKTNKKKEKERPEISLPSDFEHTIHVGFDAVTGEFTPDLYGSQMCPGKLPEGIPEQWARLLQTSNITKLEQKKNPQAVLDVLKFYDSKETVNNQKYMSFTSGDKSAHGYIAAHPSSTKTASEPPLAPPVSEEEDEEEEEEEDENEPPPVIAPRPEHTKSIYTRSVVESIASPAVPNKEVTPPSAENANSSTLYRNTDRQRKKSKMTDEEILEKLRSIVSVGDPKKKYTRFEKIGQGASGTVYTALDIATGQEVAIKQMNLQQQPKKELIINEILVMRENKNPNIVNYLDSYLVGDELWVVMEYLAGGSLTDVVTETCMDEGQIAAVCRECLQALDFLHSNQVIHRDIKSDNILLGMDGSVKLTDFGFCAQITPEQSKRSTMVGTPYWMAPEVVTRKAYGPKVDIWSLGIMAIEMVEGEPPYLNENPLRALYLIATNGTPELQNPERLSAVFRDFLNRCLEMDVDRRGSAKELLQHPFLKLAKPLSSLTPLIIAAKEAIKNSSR
Method: as §1

PFTAIRE2 = target: T21, PFTAIRE2 (Homo sapiens, UniProt Q96Q40); test: Ambit KinomeScan screening; format: binding; settings: CAL-130 10 μM
T21 construct: unspecified tag ('tagged kinases'); purchased Ambit (KinomeScan screening)
Method: as §1

PIK3CG = target: T22, PIK3CG (Homo sapiens, UniProt P48736); test: Ambit KinomeScan screening; format: binding; settings: CAL-130 10 μM
T22 construct: unspecified tag; purchased Ambit (KinomeScan screening panel)
T22 sequence (P48736 whole entry): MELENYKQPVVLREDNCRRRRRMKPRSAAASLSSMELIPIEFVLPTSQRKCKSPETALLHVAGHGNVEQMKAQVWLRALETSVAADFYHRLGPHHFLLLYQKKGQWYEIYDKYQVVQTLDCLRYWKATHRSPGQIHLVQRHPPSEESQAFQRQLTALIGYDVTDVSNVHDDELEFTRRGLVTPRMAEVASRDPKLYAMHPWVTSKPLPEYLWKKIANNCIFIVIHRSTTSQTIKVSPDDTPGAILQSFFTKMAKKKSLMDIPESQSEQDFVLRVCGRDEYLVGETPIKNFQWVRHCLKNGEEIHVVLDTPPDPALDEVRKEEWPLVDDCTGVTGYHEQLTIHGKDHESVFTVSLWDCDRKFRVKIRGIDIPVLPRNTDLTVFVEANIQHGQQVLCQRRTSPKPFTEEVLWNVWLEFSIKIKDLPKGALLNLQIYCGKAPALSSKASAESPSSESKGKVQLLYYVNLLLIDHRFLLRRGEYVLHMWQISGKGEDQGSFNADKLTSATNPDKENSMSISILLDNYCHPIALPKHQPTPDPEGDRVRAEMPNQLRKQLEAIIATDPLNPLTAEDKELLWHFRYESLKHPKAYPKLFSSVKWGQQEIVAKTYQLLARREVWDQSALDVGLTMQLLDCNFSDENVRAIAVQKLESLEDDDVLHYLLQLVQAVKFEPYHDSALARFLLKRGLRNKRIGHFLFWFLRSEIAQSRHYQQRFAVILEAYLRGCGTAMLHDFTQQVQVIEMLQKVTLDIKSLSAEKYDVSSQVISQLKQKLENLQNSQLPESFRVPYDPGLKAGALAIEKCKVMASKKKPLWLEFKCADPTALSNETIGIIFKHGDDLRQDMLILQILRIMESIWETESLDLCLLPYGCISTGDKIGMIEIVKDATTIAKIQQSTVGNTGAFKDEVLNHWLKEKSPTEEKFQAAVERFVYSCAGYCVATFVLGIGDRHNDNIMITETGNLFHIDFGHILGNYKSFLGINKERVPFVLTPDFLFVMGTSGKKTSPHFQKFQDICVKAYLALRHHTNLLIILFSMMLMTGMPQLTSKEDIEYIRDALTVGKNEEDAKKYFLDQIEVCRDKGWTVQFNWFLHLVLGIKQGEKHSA
Method: as §1

PRKR = target: T23, PRKR (Homo sapiens, UniProt P19525); test: Ambit KinomeScan screening; format: binding; settings: CAL-130 10 μM
T23 construct: tag (kind not specified); purchased Ambit (KinomeScan screening service)
T23 sequence (P19525 whole entry): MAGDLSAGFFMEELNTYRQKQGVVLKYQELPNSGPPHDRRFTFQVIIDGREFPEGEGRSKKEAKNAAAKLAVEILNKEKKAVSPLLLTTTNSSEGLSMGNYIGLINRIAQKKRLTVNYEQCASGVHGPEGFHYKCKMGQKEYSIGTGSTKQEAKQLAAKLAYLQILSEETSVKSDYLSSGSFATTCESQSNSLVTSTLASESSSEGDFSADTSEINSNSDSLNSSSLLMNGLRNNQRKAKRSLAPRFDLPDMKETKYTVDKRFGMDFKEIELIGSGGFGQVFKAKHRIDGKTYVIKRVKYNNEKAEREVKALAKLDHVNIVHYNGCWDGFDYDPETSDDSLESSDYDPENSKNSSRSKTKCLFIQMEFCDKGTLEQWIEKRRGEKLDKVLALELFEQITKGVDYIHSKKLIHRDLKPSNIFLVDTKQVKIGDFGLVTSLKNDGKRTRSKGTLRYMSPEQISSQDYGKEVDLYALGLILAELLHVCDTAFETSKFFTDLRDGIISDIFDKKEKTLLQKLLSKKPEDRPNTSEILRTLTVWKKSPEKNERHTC
Method: as §1

PYK2 = target: T24, PYK2 (Homo sapiens, UniProt Q14289); test: Ambit KinomeScan screening; format: binding; settings: CAL-130 10 μM
T24 construct: tag (kind not specified); purchased Ambit (KinomeScan screening service)
Method: as §1

RIOK2 = target: T25, RIOK2 (Homo sapiens, UniProt Q9BVS4); test: Ambit KinomeScan screening; format: binding; settings: CAL-130 10 μM
T25 construct: unspecified tag (tagged kinase); purchased Ambit (KinomeScan screening)
Method: as §1

RPS6KA2 = target: T26, RPS6KA2 (Homo sapiens, UniProt Q15349); test: Ambit KinomeScan screening; format: binding; settings: CAL-130 10 μM
T26 construct: unspecified tag (tagged kinase); purchased Ambit (KinomeScan screening)
T26 sequence (Q15349 whole entry): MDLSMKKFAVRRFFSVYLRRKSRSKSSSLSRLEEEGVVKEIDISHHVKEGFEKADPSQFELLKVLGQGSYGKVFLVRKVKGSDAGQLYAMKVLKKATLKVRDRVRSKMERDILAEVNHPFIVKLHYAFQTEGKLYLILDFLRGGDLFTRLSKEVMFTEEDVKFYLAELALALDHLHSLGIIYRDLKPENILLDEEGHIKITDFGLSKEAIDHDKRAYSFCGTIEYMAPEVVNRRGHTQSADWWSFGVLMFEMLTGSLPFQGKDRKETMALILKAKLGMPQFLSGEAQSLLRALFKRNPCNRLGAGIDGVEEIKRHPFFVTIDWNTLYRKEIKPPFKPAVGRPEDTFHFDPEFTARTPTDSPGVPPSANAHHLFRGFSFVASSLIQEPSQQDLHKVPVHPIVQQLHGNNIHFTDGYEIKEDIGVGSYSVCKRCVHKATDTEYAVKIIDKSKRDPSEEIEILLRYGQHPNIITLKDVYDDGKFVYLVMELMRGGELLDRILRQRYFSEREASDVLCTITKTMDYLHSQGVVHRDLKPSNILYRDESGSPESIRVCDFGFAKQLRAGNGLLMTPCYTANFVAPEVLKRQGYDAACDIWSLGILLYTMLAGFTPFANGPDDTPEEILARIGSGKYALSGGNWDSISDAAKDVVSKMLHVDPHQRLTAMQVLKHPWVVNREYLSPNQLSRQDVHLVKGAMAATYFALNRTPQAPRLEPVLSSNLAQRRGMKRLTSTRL
Method: as §1

STK35 = target: T27, STK35 (Homo sapiens, UniProt Q8TDR2); test: Ambit KinomeScan screening; format: binding; settings: CAL-130 10 μM
T27 construct: tag (kind not specified); purchased Ambit (KinomeScan screening service)
T27 sequence (Q8TDR2 whole entry): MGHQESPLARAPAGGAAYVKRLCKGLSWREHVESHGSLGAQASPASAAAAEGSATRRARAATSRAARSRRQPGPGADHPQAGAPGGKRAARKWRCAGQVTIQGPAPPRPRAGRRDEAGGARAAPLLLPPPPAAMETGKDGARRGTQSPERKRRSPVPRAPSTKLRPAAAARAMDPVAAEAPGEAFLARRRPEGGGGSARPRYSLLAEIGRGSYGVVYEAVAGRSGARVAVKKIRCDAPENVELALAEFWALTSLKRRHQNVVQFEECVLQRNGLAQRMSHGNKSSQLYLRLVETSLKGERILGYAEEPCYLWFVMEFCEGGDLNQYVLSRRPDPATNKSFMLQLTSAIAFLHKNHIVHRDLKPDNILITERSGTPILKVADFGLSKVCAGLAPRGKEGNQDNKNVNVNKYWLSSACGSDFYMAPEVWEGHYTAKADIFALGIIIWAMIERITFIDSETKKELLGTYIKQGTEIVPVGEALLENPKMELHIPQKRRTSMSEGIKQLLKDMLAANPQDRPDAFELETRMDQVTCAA
Method: as §1

TRKA = target: T28, TRKA (Homo sapiens, UniProt P04629); test: Ambit KinomeScan screening; format: binding; settings: CAL-130 10 μM
T28 construct: unspecified tag (tagged kinase); purchased Ambit (KinomeScan screening)
Method: as §1

VEGFR2 = target: T29, VEGFR2 (Homo sapiens, UniProt P35968); test: Ambit KinomeScan screening; format: binding; settings: CAL-130 10 μM
T29 construct: tag, kind not specified; purchased Ambit (KinomeScan screening service)
Method: as §1

YES = target: T30, YES (Homo sapiens, UniProt P07947); test: Ambit KinomeScan screening; format: binding; settings: CAL-130 10 μM
T30 construct: purchased Ambit (KinomeScan screening service)
T30 sequence (P07947 whole entry): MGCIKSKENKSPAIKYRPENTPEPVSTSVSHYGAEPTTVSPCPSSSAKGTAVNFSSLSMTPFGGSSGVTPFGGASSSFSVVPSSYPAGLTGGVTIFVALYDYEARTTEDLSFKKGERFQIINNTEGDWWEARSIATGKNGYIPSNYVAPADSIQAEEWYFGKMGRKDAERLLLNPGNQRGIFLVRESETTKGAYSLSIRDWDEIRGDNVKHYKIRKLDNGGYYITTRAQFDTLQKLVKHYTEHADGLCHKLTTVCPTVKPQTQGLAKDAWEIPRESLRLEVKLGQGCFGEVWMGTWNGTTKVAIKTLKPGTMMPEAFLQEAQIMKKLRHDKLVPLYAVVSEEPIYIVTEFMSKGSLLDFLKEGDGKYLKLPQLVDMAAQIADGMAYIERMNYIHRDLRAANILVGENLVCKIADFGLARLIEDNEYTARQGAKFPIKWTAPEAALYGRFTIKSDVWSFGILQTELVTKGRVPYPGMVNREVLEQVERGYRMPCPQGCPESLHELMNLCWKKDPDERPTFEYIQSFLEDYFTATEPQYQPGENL
Method: as §1

CCRF-CEM cells = test: Cell proliferation and apoptosis (cell counting, Annexin V); format: cell-based, human; settings: CCRF-CEM
Method: Cell proliferation of CCRF-CEM cells or shRNA transfected CCRF-CEM cells, in the presence or absence of appropriate drug, was followed by cell counting of samples in triplicate using a hemocytometer and trypan blue. For apoptosis determinations of untransfected or shRNA transfected CCRF-CEMs, cells were stained with APC-conjugated Annexin-V (BD Biosciences) in Annexin Binding Buffer (Miltyeni Biotec) and analyzed by flow cytometry. For primary T-ALL samples, cell viability was assessed using the BD Cell Viability kit (BD Biosciences) coupled with the use of fluorescent counting beads as previously described (Armstrong et al., 2009). For this, cells were plated with MS5-DL1 stroma cells, and after 72 hours following drug treatment cells were harvested and stained with an APC-conjugated anti-human CD45 followed by a staining with the above kit according to the manufacturer's instructions.

[1] = within 24 hours, persisted over 4 days

Cc1ccccc1-n1c(C(C)Nc2nc(N)nc3nc[nH]c23)nc2cccc(C)c2c1=O (stereo not shown) [CAL-130]
Percent of Control Binding (AKT1): 100%
Percent of Control Binding (AMPK-α2): 100%
Percent of Control Binding (ASK2): 100%
Percent of Control Binding (CAMK4): 100%
Percent of Control Binding (CDKL3): 100%
Percent of Control Binding (CSNK1G3): 100%
Percent of Control Binding (CSNK2A2): 100%
Percent of Control Binding (DAPK3): 100%
Percent of Control Binding (DDR1): 100%
Percent of Control Binding (ERK1): 100%
Percent of Control Binding (ERK8): 100%
Percent of Control Binding (FLT3(D835H)): 100%
Percent of Control Binding (FLT3(D835Y)): 100%
Percent of Control Binding (IRAK1): 100%
Percent of Control Binding (LKB1): 100%
Percent of Control Binding (MAP4K3): 100%
Percent of Control Binding (MELK): 100%
Percent of Control Binding (MKNK1): 100%
Percent of Control Binding (MRCKA): 100%
Percent of Control Binding (PAK3): 100%
Percent of Control Binding (PFTAIRE2): 100%
Percent of Control Binding (PIK3CG; PI3KCG (Table 2)): 1.2%
Percent of Control Binding (PIK3CG; PIK3CG / PI3Kγ (Table 1)): 10%
Percent of Control Binding (PRKR): 100%
Percent of Control Binding (PYK2): 100%
Percent of Control Binding (RIOK2): 100%
Percent of Control Binding (RPS6KA2): 100%
Percent of Control Binding (STK35): 100%
Percent of Control Binding (TRKA): 100%
Percent of Control Binding (VEGFR2): 100%
Percent of Control Binding (YES): 100%
apoptotic properties of dexamethasone (CCRF-CEM cells; dexamethasone in combination with 2.5 μM CAL-130): significantly enhanced
apoptosis (CCRF-CEM cells; [1]): promoted apoptosis
proliferation (CCRF-CEM cells; [1]): prevented proliferation
